Test results taken from the CheMixHub viscosity set.
± gives the uncertainty stated by the source.

Assay: xn = mol fraction of the nth substance listed
Settings: 100 kPa

## OCCOCCOCCO + CCCC(C)O
293.15 K, x1 = 0.0809
  viscosity: 4.98 ± 0.1 mPa·s
293.15 K, x1 = 0.16
  viscosity: 6.16 ± 0.13 mPa·s
293.15 K, x1 = 0.2401
  viscosity: 7.62 ± 0.16 mPa·s
293.15 K, x1 = 0.35
  viscosity: 10.23 ± 0.21 mPa·s
293.15 K, x1 = 0.44
  viscosity: 12.89 ± 0.27 mPa·s
293.15 K, x1 = 0.5601
  viscosity: 17.73 ± 0.37 mPa·s
293.15 K, x1 = 0.6499
  viscosity: 22.03 ± 0.46 mPa·s
293.15 K, x1 = 0.7401
  viscosity: 27.33 ± 0.57 mPa·s
293.15 K, x1 = 0.8501
  viscosity: 34.9 ± 0.73 mPa·s
293.15 K, x1 = 0.9401
  viscosity: 42.55 ± 0.89 mPa·s
298.15 K, x1 = 0.0809
  viscosity: 4.35 ± 0.09 mPa·s
298.15 K, x1 = 0.16
  viscosity: 5.48 ± 0.11 mPa·s
298.15 K, x1 = 0.2401
  viscosity: 6.71 ± 0.14 mPa·s
298.15 K, x1 = 0.35
  viscosity: 8.84 ± 0.18 mPa·s
298.15 K, x1 = 0.44
  viscosity: 10.83 ± 0.23 mPa·s
298.15 K, x1 = 0.5601
  viscosity: 14.35 ± 0.3 mPa·s
298.15 K, x1 = 0.6499
  viscosity: 17.55 ± 0.37 mPa·s
298.15 K, x1 = 0.7401
  viscosity: 21.36 ± 0.45 mPa·s
298.15 K, x1 = 0.8501
  viscosity: 27.16 ± 0.57 mPa·s
298.15 K, x1 = 0.9401
  viscosity: 32.88 ± 0.69 mPa·s
303.15 K, x1 = 0.0809
  viscosity: 3.57 ± 0.08 mPa·s
303.15 K, x1 = 0.16
  viscosity: 4.56 ± 0.1 mPa·s
303.15 K, x1 = 0.2401
  viscosity: 5.62 ± 0.12 mPa·s
303.15 K, x1 = 0.35
  viscosity: 7.33 ± 0.15 mPa·s
303.15 K, x1 = 0.44
  viscosity: 8.95 ± 0.19 mPa·s
303.15 K, x1 = 0.5601
  viscosity: 11.76 ± 0.25 mPa·s
303.15 K, x1 = 0.6499
  viscosity: 14.33 ± 0.3 mPa·s
303.15 K, x1 = 0.7401
  viscosity: 17.37 ± 0.36 mPa·s
303.15 K, x1 = 0.8501
  viscosity: 21.79 ± 0.46 mPa·s
303.15 K, x1 = 0.9401
  viscosity: 26.06 ± 0.54 mPa·s
308.15 K, x1 = 0.0809
  viscosity: 3.03 ± 0.06 mPa·s
308.15 K, x1 = 0.16
  viscosity: 3.84 ± 0.08 mPa·s
308.15 K, x1 = 0.2401
  viscosity: 4.79 ± 0.1 mPa·s
308.15 K, x1 = 0.35
  viscosity: 6.2 ± 0.13 mPa·s
308.15 K, x1 = 0.44
  viscosity: 7.55 ± 0.16 mPa·s
308.15 K, x1 = 0.5601
  viscosity: 9.77 ± 0.2 mPa·s
308.15 K, x1 = 0.6499
  viscosity: 11.78 ± 0.25 mPa·s
308.15 K, x1 = 0.7401
  viscosity: 14.16 ± 0.3 mPa·s
308.15 K, x1 = 0.8501
  viscosity: 17.58 ± 0.37 mPa·s
308.15 K, x1 = 0.9401
  viscosity: 21.01 ± 0.44 mPa·s
313.15 K, x1 = 0.0809
  viscosity: 2.48 ± 0.05 mPa·s
313.15 K, x1 = 0.16
  viscosity: 3.16 ± 0.07 mPa·s
313.15 K, x1 = 0.2401
  viscosity: 3.93 ± 0.08 mPa·s
313.15 K, x1 = 0.35
  viscosity: 5.1 ± 0.11 mPa·s
313.15 K, x1 = 0.44
  viscosity: 6.26 ± 0.13 mPa·s
313.15 K, x1 = 0.5601
  viscosity: 8.19 ± 0.17 mPa·s
313.15 K, x1 = 0.6499
  viscosity: 9.89 ± 0.21 mPa·s
313.15 K, x1 = 0.7401
  viscosity: 11.86 ± 0.25 mPa·s
313.15 K, x1 = 0.8501
  viscosity: 14.62 ± 0.31 mPa·s
313.15 K, x1 = 0.9401
  viscosity: 17.22 ± 0.36 mPa·s
318.15 K, x1 = 0.0809
  viscosity: 2.24 ± 0.05 mPa·s
318.15 K, x1 = 0.16
  viscosity: 2.86 ± 0.06 mPa·s
318.15 K, x1 = 0.2401
  viscosity: 3.49 ± 0.07 mPa·s
318.15 K, x1 = 0.35
  viscosity: 4.48 ± 0.09 mPa·s
318.15 K, x1 = 0.44
  viscosity: 5.4 ± 0.11 mPa·s
318.15 K, x1 = 0.5601
  viscosity: 6.92 ± 0.14 mPa·s
318.15 K, x1 = 0.6499
  viscosity: 8.23 ± 0.17 mPa·s
318.15 K, x1 = 0.7401
  viscosity: 9.81 ± 0.21 mPa·s
318.15 K, x1 = 0.8501
  viscosity: 12.04 ± 0.25 mPa·s
318.15 K, x1 = 0.9401
  viscosity: 14.18 ± 0.3 mPa·s
323.15 K, x1 = 0.0809
  viscosity: 1.94 ± 0.04 mPa·s
323.15 K, x1 = 0.16
  viscosity: 2.47 ± 0.05 mPa·s
323.15 K, x1 = 0.2401
  viscosity: 3.03 ± 0.06 mPa·s
323.15 K, x1 = 0.35
  viscosity: 3.87 ± 0.08 mPa·s
323.15 K, x1 = 0.44
  viscosity: 4.64 ± 0.1 mPa·s
323.15 K, x1 = 0.5601
  viscosity: 5.92 ± 0.12 mPa·s
323.15 K, x1 = 0.6499
  viscosity: 6.99 ± 0.15 mPa·s
323.15 K, x1 = 0.7401
  viscosity: 8.27 ± 0.17 mPa·s
323.15 K, x1 = 0.8501
  viscosity: 10.15 ± 0.21 mPa·s
323.15 K, x1 = 0.9401
  viscosity: 11.91 ± 0.25 mPa·s
